# In US20040143025A1, “Carbon monoxide generating compunds for treatment of vascular, inflammatory and immune disorders” (priority 2002, published 2004):
# “Also recorded” adds a separate entry of the source.
# How the values were obtained:
# [1] = test system: LEW rats transplanted with DA livers; experiment: Allogeneic orthotopic liver transplant (OLT) model: survival, histology, sGOT; assay type: in vivo, rat
# Experimental: Ad-HO-1 transduction in OLT model. Male Dark-Agouti (DA; RT1^3) and Lewis (LEW; RT1′) rats of 10-16 weeks of age were purchased from Harlan Sprague Dawley, Inc. (San Diego, Calif.), and maintained under conditions approved by the UCLA Chancellor's Animal Research Committee (CARC). All animals were housed in microisolator cages in a virus free facility and fed laboratory chow ad libitum. Orthotopic liver transplants were performed between DA donors and LEW rat recipients, as described previously. Amersi et al., supra; Kato et al., Am. J. Transplant 1:121-28 (2001). Ex-vivo gene transfer into liver grafts was performed during cold preservation (4° C.) via perfusion of the portal vein with 2 ml of cold lactated Ringer's solution containing 5×10^10 pfu (plaque-forming unit) of Ad-HO-1. Control grafts were perfused with 5×10^10 pfu of Ad-β-gal. Animals were followed for survival. Separate groups of recipients were sacrificed at day 3, 7 and 10 post-transplant, OLTs were harvested for histological evaluation, whereas blood samples were collected for measurement of sGOT levels.
# Methylene chloride treatment in OLT model To investigate whether CO represents a functional downstream HO-1 mediator in this system, methylene chloride was used as a carbon monoxide generator. As indicated above, the metabolism of MC is known to result in the exclusive production of CO2 and CO. Gargas et al., supra. LEW rats transplanted with DA livers were fed with methylene chloride (500 mg/kg) 2 hr prior to the transplant, followed by a 2-week post-transplant course (500 mg/kg/day). The blood CoHb levels in experimental animals were measured at day 0, 5, and 10. Animal survival was screened and OLTs were analyzed histologically.
# Histology. Liver allografts were harvested at day 3, 7 and 10 post-transplant. The tissue was sliced into small pieces, preserved in 10% neutral-buffered formalin, cut into 5-μm section, and stained with hematoxylin and eosin (H&E) by standard methods.
# [2] = cited from earlier work
# [3] = test system: Lewis rats; experiment: Experimental autoimmune encephalomyelitis (EAE) model of multiple sclerosis; assay type: in vivo, rat; details: daily oral administration from day 8 post-inoculation; scale 0 to 3
# Experimental: Multiple sclerosis is characterized by an autoimmune and inflammatory response directed against myelin sheath and oligodendrocytes, resulting in demyelination in the central nervous system. A well-established animal model of multiple sclerosis, experimental autoimmune encephalomyelitis (EAE), was used to examine the effect of the subject alkyl halides on this autoimmune and inflammatory condition of the central nervous system. Lewis rats were given intradermal footpad injections of 50 μg guinea pig myelin basic protein (MBP) and complete Freund's adjuvant (CFA) to induce experimental allergic encephalomyelitis (EAE). Daily oral administration of vehicle, methylene chloride or iodoform was started on day 8 post-inoculation and continued to the end of the study. Animals were monitored and scored on a 0 (normal) to 3 (complete hindlimb paralysis) scale. Daily mean±SD clinical scores are shown.
# [4] = test system: aortic allografts; experiment: Immunohistology of aortic grafts: infiltrating leukocytes and VSMCs; assay type: in vivo, rat; parameters: key: −: not present; +: low; ++: moderate; +++: frequent; details: day 30
# Experimental: Immunohistological analysis. Immunohistology was performed on cryostat sections as previously described in detail. Guillot et al., J. Immunol. 164:5258-68 (2000). Immunohistological analysis of infiltrating leukocytes was performed at day 30 after transplantation using the following mouse Mab: a mixture of two anti-leukocyte CD45 Mabs (OX1 AND OX30), anti-monocyte/macrophage CD68 (ED1), anti-αβ TCR (R.7.3), anti-CD4 (W3/25), anti-CD8 α chain (OX8), anti-monomorphic class II MHC antigens (OX6), anti-CD25 (OX39) (all from ECACC, Wiltshire, UK), anti-CD54 (ICAM-1) (Seikagaku America Inc., Rockville, Mass.), anti-CD86 (B7.2) (Pharmingen, Franklin Lakes, N.J.) and an irrelevant mouse Mab (3G8, anti-human CD16). VSMCs were detected using a mouse anti-α human smooth muscle actin Mab (Sigma, St. Louis, Mo.). Slides were then incubated with a biotin-conjugated anti-mouse immunoglobulin antibody (Vector Laboratories, Burlingame, Calif.), followed by HRP-conjugated streptavidin (Vector Laboratories) and VIP substrate. IFNγ expression was analyzed using a hamster Mab (Genzyme, Cambridge, Mass.). The IP10 chemiokine was detected using a goat anti-IP10 antibody (Santa Cruz, Santa Cruz, Calif.). Rabbit antibodies were used to detect iNOS (Transduction Laboratories, Lexington, Ky.), HO-1 (Stressgen) and TGFβ1 (Promega, Madison, Wis.). Biotin-conjugated anti-hamster, anti-goat and anti-rabbit antibodies were from Jackson Immunoresearch. Binding of these antibodies was detected by incubation with HRP-conjugated streptavidin and VIP substrate. Tissue sections were counterstained with hematoxylin and lithium carbonate.
# [5] = test system: rat liver; experiment: Histologic severity of I/R injury, Banff criteria; parameters: species or system Sprague Dawley (SD) rats; details: CO, scale 1-4
# Excerpt: Histology. Liver specimens were fixed in a 10% buffered formalin solution and embedded in paraffin. Sections were made at 4 μm and stained with H&E. The histologic severity of I/R injury was graded using International Banff Criteria (Int'l Banff Schema Conference Worksheet, The Third Int'l Banff Conference on Allograft Pathology, June 21-25 (1995)). Using these criteria, lobular disarray and ballooning changes are graded from 1-4, where no change is given a score of 1 and severe disarray or ballooning changes are given a score of 4.
smiles,measurement,setting,value
ClCCl [methylene chloride],hepatic parenchyma viable / preserved,[1]; OLT by day 10 post-transplant,more than 80%
same,histological grade of rejection,[1]; OLT by day 10 post-transplant,mild to moderate rejection
same,recipients/livers surviving >120 days,[1]; allogeneic OLT,two out of seven
same,mean survival time [MST]±SD,"[1]; allogeneic OLT, vectors 5×10^10 pfu ex vivo perfusion, methylene chloride 500 mg/kg/day × 14 days",> 47 ± 46 days
same,rat recipients surviving >3 weeks,[1]; daily feedings with methylene chloride alone,ca. 50%
same,tolerability of regimen,"[1]; methylene chloride 500 mg/kg/day × 14 days, OLT recipients",well tolerated and no side effects were noted; also recorded: well tolerated
same,Mean (days) recipient survival,[1]; treatment protocol as in Table 1,>47 days
same,HbCO generated,[2]; 500 mg/kg MC per os,around 10%
same,half life of metabolism,[2]; 500 mg/kg MC per os,about 3 h
same,toxicity on repeated administration,"[2]; 500 mg/kg for 4 weeks, rats","did not induce major body weight, biochemical or histological changes"
same,maximal COHb values in venous or aortic blood,[2]; 500 mg/kg orally,10 % COHb
same,portion of the compound converted into carbon monoxide,"[2]; rat, in vivo",50-80%
same,clinical score / clinical signs,[3],show improvement over the controls
"[C-]#[O+] [CO, carbon monoxide]",CD4,[4]; adventitia,++
same,CD8,[4]; adventitia,+
same,CD45 (leukocytes),[4]; adventitia,+++
same,CD68 (macrophages),[4]; adventitia,+++
same,TCRαβ (T cells),[4]; adventitia,+
same,VSMCs,[4]; adventitia,−
same,CD4,[4]; intima,+
same,CD8,[4]; intima,+
same,CD45 (leukocytes),[4]; intima,++
same,CD68 (macrophages),[4]; intima,++
same,TCRαβ (T cells),[4]; intima,−
same,VSMCs,[4]; intima,−
same,CD4,[4]; media,−
same,CD8,[4]; media,−
same,CD45 (leukocytes),[4]; media,−
same,CD68 (macrophages),[4]; media,−
same,TCRαβ (T cells),[4]; media,−
same,VSMCs,[4]; media,+++
same,Banff score of I/R injury,[5]; 1 h reperfusion,1.2±0.31
same,Banff score of I/R injury,[5]; 2 h reperfusion,2.0±0.12
